# From patent US12521425B2, “Method of liver cancer treatment with safranal-based formulations” (priority 2019, dated 2026)
# Tested on: HepG2 cells
# Assay: Western blotting of safranal-treated cells
# Assay type: cell-based
# Description: Western blotting. HepG2 cells were seeded at a density of 1×10^6 cells/100 mm plate and allowed to attach before being treated with safranal. Cells were treated with 500 μM of safranal for different time intervals (6-48 hours) for time-dependent experiments. Whole cell lysates were separated using 10-15% SDS polyacrylamide gel electrophoresis. Proteins were transferred onto PVDF membranes prior to incubation with various primary antibodies p-histone H3, Cdc2, Cyclin B1, CDC25B, p21, p53, H2AX, p-H2AX, TOP1, TDP1, Cleaved PARP1, PCNA, HDAC1, HDAC2, Cleaved Caspase-9, Cleaved Caspase-8, Bax, Bcl-2, GRP78, ATF6, IRE1, PERK, p-eIF2S1, […], and CHOP. GAPDH, β-actin, and α-Tubulin were used as loading controls. Protein bands were detected using WesternSure Chemiluminescent Substrate (LI-COR) and C-DiGit blot scanner (LI-COR).
smiles,measurement,setting,value
CC1=C(C=O)C(C)(C)CC=C1 [safranal],HDAC1 expression,"HepG2, 500 μM",inhibited
same,HDAC2 expression,"HepG2, 500 μM",remained unchanged
same,Cdc2 expression,"HepG2, 500 μM, 6-48 hours",inhibit Cdc2 expression starting at 12 hours
same,H2AX expression,"HepG2, 500 μM, 6-48 hours",remained unchanged
same,expression of Cyclin B1 and CDC25B,"HepG2, 500 μM, 6-48 hours",inhibiting expression of Cyclin B1 and CDC25B starting at 6 hours
same,expression of phosphorylated histone H3,"HepG2, 500 μM, 6-48 hours",inhibited dramatically
same,p-H2AX (DNA damage marker),"HepG2, 500 μM, 6-48 hours",observed starting at 6 hours
same,proliferation marker PCNA,"HepG2, 500 μM, 6-48 hours",inhibition
same,CHOP/DDIT3 and phosphorylated eIF2α,"HepG2, 500 μM, up to 48 hours",upregulated
same,expression of p21,"HepG2, 500 μM, up to 48 hours",inhibited
same,expressions of GRP78 and of p27,"HepG2, 500 μM, up to 48 hours",induced
same,"main sensors of UPR, PERK, MEL and ATF6","HepG2, 500 μM, up to 48 hours",general upregulation trend
same,TDP1 level,"HepG2, 6, 12, 24, 48 hours",lower levels
same,TOP1 level,"HepG2, 6, 12, 24, 48 hours",higher levels
same,caspase-8 cleavage,"HepG2, time-based",cleaved starting at 24 hours
same,caspase-9 cleavage,"HepG2, time-based",cleaved starting at 12 hours
same,ratio of Bax to Bcl-2,"HepG2, time-based",increased
